# Experimental data as given in patent publication US7153869B2, “Substituted amino acids as erythropoietin mimetics” (priority 1998, dated 2006).
# Where two headings read alike, the source gives them in different places.
# Target: T1, EBP-Ig (N-terminal 225 amino acids of the human EPO receptor joined to an Ig heavy chain) (Homo sapiens, UniProt P19235)
# T1 construct: Ig heavy chain (fusion partner); made in house; host or cells: NSO cells (secreted into conditioned media)
# T1 sequence (P19235 25-250 limits assumed): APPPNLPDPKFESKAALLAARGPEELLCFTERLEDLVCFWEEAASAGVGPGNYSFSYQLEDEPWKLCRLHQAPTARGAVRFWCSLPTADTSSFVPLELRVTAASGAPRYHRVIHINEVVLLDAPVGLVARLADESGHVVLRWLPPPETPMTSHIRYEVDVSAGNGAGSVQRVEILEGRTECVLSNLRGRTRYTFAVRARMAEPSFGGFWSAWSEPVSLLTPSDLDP
# Assay: Inhibition of [125I]EPO binding to immobilized EBP-Ig (EPO binding protein-Ig), scintillation Flash plate competition assay
# Details: for IC30 μM (Inhibition of EPO binding to EBP-Ig): 0–500 μM test compound; for % inh @ 50 μM (Inhibition of EPO binding to EBP-Ig): 50 μM test compound, average % inhibition
# [1] = read-out: IC50, μM (Inhibition of EPO binding to EBP-Ig), 0.5 nM [125I]EPO, concentration reducing corrected total binding to 50%
# [2] = read-out: % inh @ 50 μM (Inhibition of EPO binding to EBP-Ig)
smiles,measurement,setting,value
O=C(O)CCC(C(=O)NCCOCCOCCNC(=O)C(CCC(=O)O)N(Cc1cccc(NC(=O)c2ccco2)c1)Cc1cccc(Oc2ccccc2)c1)N(Cc1cccc(NC(=O)c2ccco2)c1)Cc1cccc(Oc2ccccc2)c1 (stereo not shown) [compound 248],IC30 μM (Inhibition of EPO binding to EBP-Ig),0.5 nM [125I]EPO,7 µM
same,% inh @ 50 μM (Inhibition of EPO binding to EBP-Ig),0.5 nM [125I]EPO,56%
same,EPO/EBP-Ig % inh @ 50 μM,"Table 11, 50 μM",56%
same,IC50,[1],20 µM
COc1ccc(CCNC(=O)C(CCCCN)N(C/C=C/c2ccccc2)C/C=C/c2ccccc2)cc1OC (stereo not shown) [compound 221],IC30 μM (Inhibition of EPO binding to EBP-Ig),0.5 nM [125I]EPO,10 µM
same,EPO/EBP-Ig % inh @ 50 μM,"50 μM compound, Table 10",48%
same,% inh @ 50 μM (Inhibition of EPO binding to EBP-Ig),0.5 nM [125I]EPO,48%
same,IC50,[1],80 µM
CC(C)[C@H](NC/C=C/c1ccc(C(F)(F)F)cc1)C(=O)O.O=C(O)C(F)(F)F [compound 370],EPO/EBP-Ig % inh @ 50 μM,50 μM compound,0%
CC(C)(C)OC[C@@H](C(=O)O)N(C/C=C/c1cccc(Oc2ccc(Cl)c(Cl)c2)c1)C/C=C/c1cccc(Oc2ccc(Cl)c(Cl)c2)c1 [compound 302],EPO/EBP-Ig % inh @ 50 μM,"50 μM compound, Table 16A",30%
COC(=O)[C@H](CO)NC/C=C/c1cccc(Oc2ccc(C(C)(C)C)cc2)c1.O=C(O)C(F)(F)F [compound 343],EPO/EBP-Ig % inh @ 50 μM,"50 μM compound, Table 20A",37%
O=C(O)C(F)(F)F.O=C(O)[C@H](Cc1ccc(O)cc1)NC/C=C/c1ccc(C(F)(F)F)cc1 [compound 362],EPO/EBP-Ig % inh @ 50 μM,50 μM compound,0%
COc1ccc(CCNC(=O)C(CCCCNC(=O)Nc2ccc(Oc3ccccc3)cc2)N(C/C=C/c2ccccc2)C/C=C/c2ccccc2)cc1 (stereo not shown) [compound 229],EPO/EBP-Ig % inh @ 50 μM,"50 μM compound, Table 10",22%
CC(C)(C)OC(=O)CC(C(=O)NCCCOCCOCCOCCCNC(=O)C(CC(=O)OC(C)(C)C)N(C/C=C/c1cccc(Oc2ccc(C(C)(C)C)cc2)c1)C/C=C/c1cccc(Oc2ccc(C(C)(C)C)cc2)c1)N(C/C=C/c1cccc(Oc2ccc(C(C)(C)C)cc2)c1)C/C=C/c1cccc(Oc2ccc(C(C)(C)C)cc2)c1 (stereo not shown) [compound 253],EPO/EBP-Ig % inh @ 50 μM,"50 μM compound, Table 12",−5%
COc1cccc(CCNC(=O)C(CCCCN)N(C/C=C/c2ccccc2)C/C=C/c2ccccc2)c1 (stereo not shown) [compound 222],IC30 μM (Inhibition of EPO binding to EBP-Ig),0.5 nM [125I]EPO,5 µM
same,EPO/EBP-Ig % inh @ 50 μM,"50 μM compound, Table 10",56%
same,% inh @ 50 μM (Inhibition of EPO binding to EBP-Ig),0.5 nM [125I]EPO,56%
COC(=O)[C@H](COC(C)(C)C)NC/C=C/c1cccc(Oc2ccc(Cl)c(Cl)c2)c1 [compound 354],EPO/EBP-Ig % inh @ 50 μM,"50 μM compound, Table 20A",31%
Cc1ccc(Oc2cccc(CN(Cc3cccc(NCc4cccc(Cl)c4)c3)C(CC(=O)O)C(=O)O)c2)cc1 (stereo not shown) [compound 71],EPO/EBP-Ig % inh @ 50 μM,"Table 4, 50 μM",−6%
COC(=O)C(CCCCN)N(C/C=C/c1cccc([N+](=O)[O-])c1)C/C=C/c1cccc([N+](=O)[O-])c1 (stereo not shown) [compound 184],IC30 μM (Inhibition of EPO binding to EBP-Ig),0.5 nM [125I]EPO,10 µM
same,EPO/EBP-Ig % inh @ 50 μM,"50 μM compound, Table 9",53%
same,% inh @ 50 μM (Inhibition of EPO binding to EBP-Ig),0.5 nM [125I]EPO,53%
O=C(O)CCC(=O)NCCCCC(C(=O)NCCOCCOCCNC(=O)C(CCCCNC(=O)CCC(=O)O)N(Cc1ccc(OCc2ccccc2)cc1)Cc1ccc(OCc2ccccc2)cc1)N(Cc1ccc(OCc2ccccc2)cc1)Cc1ccc(OCc2ccccc2)cc1 (stereo not shown) [compound 262],IC30 μM (Inhibition of EPO binding to EBP-Ig),0.5 nM [125I]EPO,1 µM
same,IC50,[1],1.5 µM
COC(=O)C(CCCCNC(=O)OC(C)(C)C)N(C/C=C/c1ccc([N+](=O)[O-])cc1)C/C=C/c1ccc([N+](=O)[O-])cc1 (stereo not shown) [compound 178],EPO/EBP-Ig % inh @ 50 μM,"50 μM compound, Table 9",36%
same,% inh @ 50 μM (Inhibition of EPO binding to EBP-Ig),0.5 nM [125I]EPO,36%
COC(=O)[C@H](COC(C)(C)C)NC/C=C/c1cccc(Oc2ccc(C(C)(C)C)cc2)c1 [compound 356],EPO/EBP-Ig % inh @ 50 μM,"50 μM compound, Table 20A",23%
CC(C)(C)OC(=O)NCCCCC(C(=O)NCCCOCCCCOCCCNC(=O)C(CCCCNC(=O)OC(C)(C)C)N(Cc1ccc(OCc2ccccc2)cc1)Cc1ccc(OCc2ccccc2)cc1)N(Cc1ccc(OCc2ccccc2)cc1)Cc1ccc(OCc2ccccc2)cc1 (stereo not shown) [compound 258],EPO/EBP-Ig % inh @ 50 μM,"50 μM compound, Table 13",−24%
"CCCCC(=O)Nc1cccc(CN(Cc2cccc(Oc3ccccc3)c2)C(CCC(=O)O)C(=O)NCCOCCOCCNC(=O)C(CCC(=O)O)N(Cc2cccc(NC(=O)CCCC)c2)Cc2cccc(Oc3ccccc3)c2)c1 (stereo not shown) [cpd 247, [N-(3-Phenoxybenzyl)-N-(3-(pentanoylamino)benzyl)-Glu-NHCH2CH2OCH2]2]",IC50,,18 µM
same,IC30 μM (Inhibition of EPO binding to EBP-Ig),0.5 nM [125I]EPO,7 µM
same,inhibition at 50 µM,[2],47%
same,inhibition at 50 µM,"read-out: EPO/EBP-Ig % inh @ 50 μM, Table 11, 50 μM",47%
O=C(O)CC(C(=O)O)N(C/C=C/c1cccc(Oc2ccccc2)c1)C/C=C/c1cccc(Oc2ccccc2)c1 (stereo not shown) [compound 108],IC30 μM (Inhibition of EPO binding to EBP-Ig),0.5 nM [125I]EPO,23 µM
same,inhibition at 50 µM,[2],81%
same,inhibition at 50 µM,"read-out: EPO/EBP-Ig % inh @ 50 μM, Table 6, 50 μM",81%
NC(=O)C[C@H](NC/C=C/c1ccc(C(F)(F)F)cc1)C(=O)O.O=C(O)C(F)(F)F [compound 367],EPO/EBP-Ig % inh @ 50 μM,50 μM compound,0%
O=C(O)CCC(C(=O)O)N(C/C=C/c1ccc(NC(=O)Oc2ccccc2)cc1)Cc1ccc(OCc2ccccc2)cc1 (stereo not shown) [compound 89],EPO/EBP-Ig % inh @ 50 μM,"Table 5, 50 μM",22%
COC(=O)C(CCCCN)N(Cc1ccc(OCc2ccccc2)cc1)Cc1ccc(OCc2ccccc2)cc1 (stereo not shown) [compound 110],IC30 μM (Inhibition of EPO binding to EBP-Ig),0.5 nM [125I]EPO,6 µM
same,inhibition at 50 µM,[2],54%
same,inhibition at 50 µM,"read-out: EPO/EBP-Ig % inh @ 50 μM, Table 7, 50 μM",54%
O=C(O)CCC(C(=O)NCCOCCOCCNC(=O)C(CCC(=O)O)N(CC=Cc1ccccc1)CC=Cc1ccccc1)N(CC=Cc1ccccc1)CC=Cc1ccccc1 (stereo not shown) [compound 251],IC30 μM (Inhibition of EPO binding to EBP-Ig),0.5 nM [125I]EPO,10 µM
same,EPO/EBP-Ig % inh @ 50 μM,"50 μM compound, Table 12",49%
same,% inh @ 50 μM (Inhibition of EPO binding to EBP-Ig),0.5 nM [125I]EPO,49%
same,IC50,[1],45 µM
COc1ccc(C(=O)Nc2ccc(/C=C/CN(Cc3ccc(OCc4ccccc4)cc3)C(CCC(=O)O)C(=O)O)cc2)cc1 (stereo not shown) [compound 82],% inh @ 50 μM (Inhibition of EPO binding to EBP-Ig),0.5 nM [125I]EPO,32%
same,EPO/EBP-Ig % inh @ 50 μM,"Table 5, 50 μM",32%
COC(=O)C(CCCCNC(=O)OC(C)(C)C)N(C/C=C/c1cccc(Oc2ccc(C(C)(C)C)cc2)c1)C/C=C/c1cccc(Oc2ccc(C(C)(C)C)cc2)c1 (stereo not shown) [compound 181],EPO/EBP-Ig % inh @ 50 μM,"50 μM compound, Table 9",−9%
O=C(O)CCC(C(=O)O)N(C/C=C/c1ccc(NC(=O)CC2(CC(=O)O)CCCC2)cc1)Cc1ccc(OCc2ccccc2)cc1 (stereo not shown) [compound 88],EPO/EBP-Ig % inh @ 50 μM,"Table 5, 50 μM",10.3%
NC(=O)CCC(C(=O)O)N(CC=Cc1cccs1)CC=Cc1cccs1 (stereo not shown) [compound 55],EPO/EBP-Ig % inh @ 50 μM,"Table 3, 50 μM",4%
"O=C(O)CCC(NCC=Cc1cccc(Oc2ccccc2)c1)C(=O)O (stereo not shown) [cpd 326, N-(3-Phenoxycinnamyl)Glu-OH]",EPO/EBP-Ig % inh @ 50 μM,"50 μM compound, Table 19A",0%
CC(C)(C)OC[C@@H](C(=O)O)N(C/C=C/c1cccc(Oc2cccc(C(F)(F)F)c2)c1)C/C=C/c1cccc(Oc2cccc(C(F)(F)F)c2)c1 [compound 303],EPO/EBP-Ig % inh @ 50 μM,"50 μM compound, Table 16A",21%
COC(=O)C(CCCCNC(=O)OCc1ccccc1)N(C/C=C/c1ccccc1)C/C=C/c1ccccc1 (stereo not shown) [compound 171],EPO/EBP-Ig % inh @ 50 μM,"50 μM compound, Table 9",nb
O=C(O)CCC(C(=O)O)N(C/C=C/c1ccc(NC(=O)c2ccc(-c3ccccc3)cc2)cc1)Cc1ccc(OCc2ccccc2)cc1 (stereo not shown) [compound 90],EPO/EBP-Ig % inh @ 50 μM,"Table 5, 50 μM",29%
CCCCNC(=O)C(CCCCNC(=O)c1ccccc1OC)N(C/C=C/c1ccccc1)C/C=C/c1ccccc1 (stereo not shown) [compound 206],EPO/EBP-Ig % inh @ 50 μM,"50 μM compound, Table 10, 50 µM",17%
CC(C)(C)OC(=O)CC[C@H](NC/C=C/c1cccc(Oc2cccc(C(F)(F)F)c2)c1)C(=O)OC(C)(C)C [compound 338],EPO/EBP-Ig % inh @ 50 μM,"50 μM compound, Table 19A",23%
COc1ccc(CCNC(=O)C(CCCCN)N(C/C=C/c2ccc(-c3ccccc3)cc2)C/C=C/c2ccc(-c3ccccc3)cc2)cc1 (stereo not shown) [compound 238],EPO/EBP-Ig % inh @ 50 μM,"50 μM compound, Table 10",39%
same,% inh @ 50 μM (Inhibition of EPO binding to EBP-Ig),0.5 nM [125I]EPO,39%
COC(=O)C(CCCCNC(=O)OCc1ccccc1)N(C/C=C/c1ccc2ccccc2c1)C/C=C/c1ccc2ccccc2c1 (stereo not shown) [compound 175],EPO/EBP-Ig % inh @ 50 μM,"50 μM compound, Table 9",1%
